Test results published in US20230027066A1 (Urovant Sciences GmbH, priority 2019, published 2023).

Experiments:
men and women with OAB = assay: Phase 2b study of vibegron in OAB, Part 1, efficacy at Week 8 (voiding diary); assay type: in vivo, human
Source text: Part 2 was designed to continue to assess the safety and efficacy of concomitant dosing. […] Subjects in both Part 1 and Part 2 had the option of enrolling in a 1-year extension. Participants were required to keep a voiding diary, recording the occurrence of each strong urge, total incontinence, and urge incontinence episode. Efficacy data for Part 1 and Part 2 are summarized herein.
The total number of urgency incontinence episodes must have exceeded the total number of stress incontinence episodes for all subjects.

[1] = 40-week extension study (52 weeks), adverse events
Source text: Approximately 500 men and women with overactive bladder who completed 12 weeks in the parent study were permitted to enroll, at approximately 110 study sites in the U.S.
Secondary endpoints were evaluation of CFB at Week 52 in average number of micturitions, Urge Urinary Incontinence (UUI) episodes, urgency episodes, and total urinary incontinence episodes. All CFB calculations used the parent study Baseline value.

[2] = vibegron 3 mg, OAB Wet subjects
[3] = vibegron 15 mg, OAB Wet subjects
[4] = vibegron 50 mg, OAB Wet subjects
[5] = vibegron 100 mg, OAB Wet subjects

O=C(Nc1ccc(C[C@@H]2CC[C@H]([C@H](O)c3ccccc3)N2)cc1)[C@@H]1CCc2nccc(=O)n21 [Vibegron, (6S)-N-[4-[[(2S,5R)−5-[(R)-hydroxy(phenyl)methyl]pyrrolidin−2-yl]methyl]phenyl]−4-oxo−7,8-dihydro−6H-pyrrolo[1,2-a]pyrimidine−6-carboxamide]
Micturitions: adjusted difference from placebo at Week 8, difference in LS means (MMRM) (men and women with OAB; vibegron 3 mg): −0.5
Micturitions: difference from placebo at Week 8, difference in LS means (cLDA) (men and women with OAB; vibegron 3 mg): −0.46
Urgency episodes: adjusted difference from placebo at Week 8, difference in LS means (MMRM) (men and women with OAB; vibegron 3 mg): −0.2
Urgency episodes: difference from placebo at Week 8, difference in LS means (cLDA) (men and women with OAB; vibegron 3 mg): −0.18
Total incontinence episodes: adjusted difference from placebo at Week 8, difference in LS means (MMRM) (men and women with OAB; [2]): −0.1
Total incontinence episodes: difference from placebo at Week 8, difference in LS means (cLDA) (men and women with OAB; [2]): −0.18
Urgency incontinence episodes: adjusted difference from placebo at Week 8, difference in LS means (MMRM) (men and women with OAB; [2]): −0.2
Urgency incontinence episodes: difference from placebo at Week 8, difference in LS means (cLDA) (men and women with OAB; [2]): −0.28
Micturitions: adjusted difference from placebo at Week 8, difference in LS means (MMRM) (men and women with OAB; vibegron 15 mg): −0.5
Micturitions: difference from placebo at Week 8, difference in LS means (cLDA) (men and women with OAB; vibegron 15 mg): −0.45
Urgency episodes: adjusted difference from placebo at Week 8, difference in LS means (MMRM) (men and women with OAB; vibegron 15 mg): −0.7
Urgency episodes: difference from placebo at Week 8, difference in LS means (cLDA) (men and women with OAB; vibegron 15 mg): −0.67
Total incontinence episodes: adjusted difference from placebo at Week 8, difference in LS means (MMRM) (men and women with OAB; [3]): −0.4
Total incontinence episodes: difference from placebo at Week 8, difference in LS means (cLDA) (men and women with OAB; [3]): −0.48
Urgency incontinence episodes: adjusted difference from placebo at Week 8, difference in LS means (MMRM) (men and women with OAB; [3]): −0.6
Urgency incontinence episodes: difference from placebo at Week 8, difference in LS means (cLDA) (men and women with OAB; [3]): −0.57
Micturitions: adjusted difference from placebo at Week 8, difference in LS means (MMRM) (men and women with OAB; vibegron 50 mg): −0.7
Micturitions: difference from placebo at Week 8, difference in LS means (cLDA) (men and women with OAB; vibegron 50 mg): −0.64
Urgency episodes: adjusted difference from placebo at Week 8, difference in LS means (MMRM) (men and women with OAB; vibegron 50 mg): −0.8
Urgency episodes: difference from placebo at Week 8, difference in LS means (cLDA) (men and women with OAB; vibegron 50 mg): −0.76
Total incontinence episodes: adjusted difference from placebo at Week 8, difference in LS means (MMRM) (men and women with OAB; [4]): −0.5
Total incontinence episodes: difference from placebo at Week 8, difference in LS means (cLDA) (men and women with OAB; [4]): −0.60
Urgency incontinence episodes: adjusted difference from placebo at Week 8, difference in LS means (MMRM) (men and women with OAB; [4]): −0.7
Urgency incontinence episodes: change from baseline at Week 8, mean (men and women with OAB; [4]): −1.90
Urgency incontinence episodes: daily number of events, Week 8 mean (men and women with OAB; [4]): 0.86
Urgency incontinence episodes: difference from placebo at Week 8, difference in LS means (cLDA) (men and women with OAB; [4]): −0.72
Micturitions: adjusted difference from placebo at Week 8, difference in LS means (MMRM) (men and women with OAB; vibegron 100 mg): −0.9
Micturitions: difference from placebo at Week 8, difference in LS means (cLDA) (men and women with OAB; vibegron 100 mg): −0.91
Urgency episodes: adjusted difference from placebo at Week 8, difference in LS means (MMRM) (men and women with OAB; vibegron 100 mg): −1.3
Micturitions, change from baseline at week 8, difference in LS means 100 mg − 50 mg (men and women with OAB; vibegron 100 mg vs 50 mg): −0.27
Total incontinence episodes, change from baseline at week 8, difference in LS means 100 mg − 50 mg (men and women with OAB; vibegron 100 mg vs 50 mg): 0.02
Urgency episodes, change from baseline at week 8, difference in LS means 100 mg − 50 mg (men and women with OAB; vibegron 100 mg vs 50 mg): −0.48
Urgency incontinence episodes, change from baseline at week 8, difference in LS means 100 mg − 50 mg (men and women with OAB; vibegron 100 mg vs 50 mg): 0.01
Total incontinence episodes: adjusted difference from placebo at Week 8, difference in LS means (MMRM) (men and women with OAB; [5]): −0.6
Total incontinence episodes: difference from placebo at Week 8, difference in LS means (cLDA) (men and women with OAB; [5]): −0.58
Urgency incontinence episodes: adjusted difference from placebo at Week 8, difference in LS means (MMRM) (men and women with OAB; [5]): −0.7
Urgency incontinence episodes: daily number of events, Week 8 mean (men and women with OAB; [5]): 0.84
Urgency incontinence episodes: difference from placebo at Week 8, difference in LS means (cLDA) (men and women with OAB; [5]): −0.71
Discontinued the study: Death ([1]; 40-Weeks arm): 1 (1.1) n (%)
Discontinued the study: Death ([1]; 52-Weeks arm): 0 n (%)
SAEs resulting in death (not considered related by Investigator or Sponsor) ([1]; Overall groups): 1 (0.4) n (%)
Discontinued the study: Death ([1]; Overall groups, Randomized Set Extension): 1 (0.4) n (%)
Discontinued the study: Adverse Event ([1]; both, human, in vivo): 4 (1.5) n (%)
Patients with at least one treatment-emergent adverse event ([1]; both, human, in vivo): 171 (62.6) n (%)
Patients with at least one treatment-emergent serious AE ([1]; both, human, in vivo): 9 (3.3) n (%)
SAEs considered treatment-related by the investigator ([1]; both, human, in vivo): 1 (0.4) n (%)
SAEs: Hospitalization ([1]; both, human, in vivo): 7 (2.6) n (%)
SAEs: Other serious criteria ([1]; both, human, in vivo): 1 (0.4) n (%)
Discontinued the study: Adverse Event ([1]; both, human, in vivo, 40 weeks): 1 (1.1) n (%)
AE leading to discontinuation of study drug: Acute prerenal failure ([1]; both, human, in vivo, 52 weeks): 0 n (%)
AE leading to discontinuation of study drug: Amnesia ([1]; both, human, in vivo, 52 weeks): 1 (0.4) n (%)
AE leading to discontinuation of study drug: Any ([1]; both, human, in vivo, 52 weeks): 4 (1.5) n (%)
AE leading to discontinuation of study drug: Aortic stenosis ([1]; both, human, in vivo, 52 weeks): 0 n (%)
AE leading to discontinuation of study drug: Atrial fibrillation ([1]; both, human, in vivo, 52 weeks): 0 n (%)
AE leading to discontinuation of study drug: Blood creatinine increased ([1]; both, human, in vivo, 52 weeks): 1 (0.4) n (%)
AE leading to discontinuation of study drug: Blood urea increased ([1]; both, human, in vivo, 52 weeks): 1 (0.4) n (%)
AE leading to discontinuation of study drug: Cardiac failure ([1]; both, human, in vivo, 52 weeks): 0 n (%)
AE leading to discontinuation of study drug: Cardiomyopathy ([1]; both, human, in vivo, 52 weeks): 0 n (%)
AE leading to discontinuation of study drug: Chronic kidney disease ([1]; both, human, in vivo, 52 weeks): 0 n (%)
AE leading to discontinuation of study drug: Constipation ([1]; both, human, in vivo, 52 weeks): 1 (0.4) n (%)
AE leading to discontinuation of study drug: Diarrhea ([1]; both, human, in vivo, 52 weeks): 1 (0.4) n (%)
AE leading to discontinuation of study drug: Dizziness ([1]; both, human, in vivo, 52 weeks): 0 n (%)
AE leading to discontinuation of study drug: Dry eye ([1]; both, human, in vivo, 52 weeks): 0 n (%)
AE leading to discontinuation of study drug: Dyspnoea ([1]; both, human, in vivo, 52 weeks): 0 n (%)
AE leading to discontinuation of study drug: Haematuria ([1]; both, human, in vivo, 52 weeks): 0 n (%)
AE leading to discontinuation of study drug: Headache ([1]; both, human, in vivo, 52 weeks): 0 n (%)
AE leading to discontinuation of study drug: Intervertebral disc degeneration ([1]; both, human, in vivo, 52 weeks): 0 n (%)
AE leading to discontinuation of study drug: Mitral valve incompetence ([1]; both, human, in vivo, 52 weeks): 0 n (%)
AE leading to discontinuation of study drug: Osteoarthritis ([1]; both, human, in vivo, 52 weeks): 0 n (%)
AE leading to discontinuation of study drug: Pulmonary embolism ([1]; both, human, in vivo, 52 weeks): 0 n (%)
AE leading to discontinuation of study drug: Sinus tachycardia ([1]; both, human, in vivo, 52 weeks): 0 n (%)
AE leading to discontinuation of study drug: Tricuspid valve incompetence ([1]; both, human, in vivo, 52 weeks): 0 n (%)
AE: Anaemia ([1]; both, human, in vivo, 52 weeks): 7 (2.6) n (%)
AE: Atrial fibrillation ([1]; both, human, in vivo, 52 weeks): 0 n (%)
AE: Back pain ([1]; both, human, in vivo, 52 weeks): 6 (2.2) n (%)
AE: Blood pressure increased ([1]; both, human, in vivo, 52 weeks): 2 (0.7) n (%)
AE: Bronchitis ([1]; both, human, in vivo, 52 weeks): 8 (2.9) n (%)
